Target: bovine cardiac myosin (Bos taurus, UniProt Q9BE39)
Assay: Myosin activation assay (PK/LDH-coupled ATPase, bovine cardiac myofibrils)
Assay type: biochemical
Conditions: AC20 = concentration at which total response is increased by twenty percent
Method in brief: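 Values are the concentrations raising the ATPase rate by 20% or 50% over DMSO, from 10-point dose responses fitted with four parameters. Rate is NADH loss at 340 nm via PK/LDH coupling, read 15 min at room temperature, in pH 6.8 PIPES with 50 μM ATP. Bovine cardiac myofibrils were held at pCa ~6 or pCa 10.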

Chain of bovine cardiac myosin (Q9BE39 whole entry): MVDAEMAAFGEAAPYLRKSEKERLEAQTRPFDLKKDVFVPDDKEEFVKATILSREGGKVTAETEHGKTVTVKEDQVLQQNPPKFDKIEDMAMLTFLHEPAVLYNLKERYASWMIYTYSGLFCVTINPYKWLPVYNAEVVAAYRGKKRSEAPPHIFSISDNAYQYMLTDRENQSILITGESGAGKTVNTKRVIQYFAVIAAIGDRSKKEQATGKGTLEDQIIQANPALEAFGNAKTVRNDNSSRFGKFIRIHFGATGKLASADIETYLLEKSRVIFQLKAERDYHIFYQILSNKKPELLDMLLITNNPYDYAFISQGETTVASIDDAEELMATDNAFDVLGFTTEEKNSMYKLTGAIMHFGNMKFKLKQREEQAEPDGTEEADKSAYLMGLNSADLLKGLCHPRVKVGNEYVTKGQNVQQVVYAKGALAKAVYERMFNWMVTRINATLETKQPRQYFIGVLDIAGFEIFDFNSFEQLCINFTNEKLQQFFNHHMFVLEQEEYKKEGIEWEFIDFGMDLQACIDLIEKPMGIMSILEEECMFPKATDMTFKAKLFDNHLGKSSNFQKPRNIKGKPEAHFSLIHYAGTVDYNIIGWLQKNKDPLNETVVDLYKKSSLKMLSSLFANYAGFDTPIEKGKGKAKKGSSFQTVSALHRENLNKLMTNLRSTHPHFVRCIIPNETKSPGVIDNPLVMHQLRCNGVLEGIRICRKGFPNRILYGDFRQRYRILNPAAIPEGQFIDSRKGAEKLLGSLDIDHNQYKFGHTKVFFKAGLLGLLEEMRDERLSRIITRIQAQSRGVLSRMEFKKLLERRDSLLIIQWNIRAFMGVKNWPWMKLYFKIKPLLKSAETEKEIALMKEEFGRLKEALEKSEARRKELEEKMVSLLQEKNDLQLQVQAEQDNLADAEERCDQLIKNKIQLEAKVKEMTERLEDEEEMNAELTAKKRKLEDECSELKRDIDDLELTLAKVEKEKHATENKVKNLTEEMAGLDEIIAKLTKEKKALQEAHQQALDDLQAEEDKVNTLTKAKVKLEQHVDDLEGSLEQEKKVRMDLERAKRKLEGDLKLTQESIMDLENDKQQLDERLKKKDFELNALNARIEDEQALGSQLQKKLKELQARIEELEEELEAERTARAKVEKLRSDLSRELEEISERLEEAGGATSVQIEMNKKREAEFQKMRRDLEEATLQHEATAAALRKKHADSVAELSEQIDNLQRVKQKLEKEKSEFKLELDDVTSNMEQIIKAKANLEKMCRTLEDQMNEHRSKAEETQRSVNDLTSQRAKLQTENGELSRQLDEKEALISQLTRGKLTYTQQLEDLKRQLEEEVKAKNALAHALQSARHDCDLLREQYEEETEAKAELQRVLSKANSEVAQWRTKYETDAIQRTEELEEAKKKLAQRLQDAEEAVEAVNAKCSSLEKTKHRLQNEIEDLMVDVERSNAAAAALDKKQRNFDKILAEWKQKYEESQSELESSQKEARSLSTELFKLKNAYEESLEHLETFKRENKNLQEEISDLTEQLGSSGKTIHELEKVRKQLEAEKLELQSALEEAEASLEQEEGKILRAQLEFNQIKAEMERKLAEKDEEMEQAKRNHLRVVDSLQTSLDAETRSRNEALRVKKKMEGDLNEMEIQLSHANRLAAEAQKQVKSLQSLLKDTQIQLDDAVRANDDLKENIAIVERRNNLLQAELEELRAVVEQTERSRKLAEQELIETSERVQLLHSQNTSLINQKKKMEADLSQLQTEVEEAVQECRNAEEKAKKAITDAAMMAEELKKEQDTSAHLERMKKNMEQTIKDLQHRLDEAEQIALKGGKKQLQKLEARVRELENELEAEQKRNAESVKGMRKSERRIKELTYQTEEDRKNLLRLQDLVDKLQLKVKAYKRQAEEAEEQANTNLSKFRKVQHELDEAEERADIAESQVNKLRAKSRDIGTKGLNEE
Chain of bovine cardiac myosin (P85100 whole entry partner): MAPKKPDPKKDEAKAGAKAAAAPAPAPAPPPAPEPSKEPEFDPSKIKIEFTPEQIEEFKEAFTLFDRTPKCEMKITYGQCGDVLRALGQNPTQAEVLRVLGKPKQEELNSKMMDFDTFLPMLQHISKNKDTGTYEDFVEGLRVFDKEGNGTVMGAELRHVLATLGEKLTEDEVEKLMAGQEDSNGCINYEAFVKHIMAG
Chain of bovine cardiac myosin (Q3SZE5 whole entry partner): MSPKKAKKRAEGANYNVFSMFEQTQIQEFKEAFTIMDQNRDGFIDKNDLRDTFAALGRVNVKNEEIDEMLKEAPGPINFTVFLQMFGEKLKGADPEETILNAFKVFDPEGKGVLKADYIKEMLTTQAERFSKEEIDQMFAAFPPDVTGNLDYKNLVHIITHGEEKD

## Cn1cc(S(=O)(=O)C(C)(F)C2CCN(C(=O)Nc3ccnnc3)CC2)c(C(F)(F)F)n1 (centres unmarked) [Compound 281, 4-(1-fluoro-1-((1-methyl-3-(trifluoromethyl)-1H-pyrazol-4-yl)sulfonyl)ethyl)-N-(pyridazin-4-yl)piperidine-1-carboxamide]
  Myosin Activation (AC20): ++ (++ represents myosin activation value AC20 from 2 μM-5 μM)

## O=C(Nc1ccnnc1)N1CCC(C2(S(=O)(=O)c3ccc(C(F)(F)F)cc3)CCC2)CC1 [Compound 165, N-(pyridazin-4-yl)-4-(1-((4-(trifluoromethyl)phenyl)sulfonyl)cyclobutyl)piperidine-1-carboxamide]
  Myosin Activation (AC20): +++ (+++ represents myosin activation value AC20 < 2 μM)

## COc1ccc(F)cc1S(=O)(=O)C(F)(F)C1CCN(C(=O)Nc2ccnnc2)CC1 [Compound 68, 4-(difluoro((5-fluoro-2-methoxyphenyl)sulfonyl)methyl)-N-(pyridazin-4-yl)piperidine-1-carboxamide]
  Myosin Activation (AC20): + (+ represents myosin activation value AC20 > 5 μM)

## Cc1cc(S(=O)(=O)C(C)(C)C2CCN(C(=O)Nc3ccncc3)CC2)n(C)n1 [Compound 186, 4-(2-((1,3-dimethyl-1H-pyrazol-5-yl)sulfonyl)propan-2-yl)-N-(pyridin-4-yl)piperidine-1-carboxamide]
  Myosin Activation (AC20): +++ (+++ represents myosin activation value AC20 < 2 μM)

## Cn1cc(S(=O)(=O)C(C)(C)C2CCN(C(=O)Nc3ccnnc3)CC2)c(Cl)n1 [Compound 103, 4-(2-((3-chloro-1-methyl-1H-pyrazol-4-yl)sulfonyl)propan-2-yl)-N-(pyridazin-4-yl)piperidine-1-carboxamide]
  Myosin Activation (AC20): ++ (++ represents myosin activation value AC20 from 2 μM-5 μM)

## Cn1cc(S(=O)(=O)[C@@](C)(F)C2CCN(C(=O)Nc3cocn3)CC2)c(C(F)F)n1 [Compound 248, (R)-4-(1-((3-(difluoromethyl)-1-methyl-1H-pyrazol-4-yl)sulfonyl)-1-fluoroethyl)-N-(oxazol-4-yl)piperidine-1-carboxamide]
  Myosin Activation (AC20): + (+ represents myosin activation value AC20 > 5 μM)

## Cn1nc(C(F)F)cc1S(=O)(=O)C(C)(C)C1CCN(C(=O)Nc2ccnc(F)c2)CC1 [Compound 105, 4-(2-((3-(difluoromethyl)-1-methyl-1H-pyrazol-5-yl)sulfonyl)propan-2-yl)-N-(2-fluoropyridin-4-yl)piperidine-1-carboxamide]
  Myosin Activation (AC20): +++ (+++ represents myosin activation value AC20 < 2 μM)

## O=C(Nc1ccnnc1)N1CCC(C(F)(F)S(=O)(=O)c2ccccc2C(F)F)CC1 [Compound 4, 4-(((2-(Difluoromethyl)phenyl)sulfonyl)difluoromethyl)-N-(pyridazin-4-yl)piperidine-1-carboxamide]
  Myosin Activation (AC20): ++ (++ represents myosin activation value AC20 from 2 μM-5 μM)

## Cn1nc(C(C)(C)C)cc1S(=O)(=O)C(F)(F)C1CCN(C(=O)Nc2ccnnc2)CC1 [Compound 89, 4-(((3-(tert-butyl)-1-methyl-1H-pyrazol-5-yl)sulfonyl)difluoromethyl)-N-(pyridazin-4-yl)piperidine-1-carboxamide]
  Myosin Activation (AC20): + (+ represents myosin activation value AC20 > 5 μM)

## COc1ccc(S(=O)(=O)[C@@](C)(F)C2CCN(C(=O)Nc3ccon3)CC2)cn1 [Compound 308, (R)-4-(1-fluoro-1-((6-methoxypyridin-3-yl)sulfonyl)ethyl)-N-(isoxazol-3-yl)piperidine-1-carboxamide]
  Myosin Activation (AC20): ++ (++ represents myosin activation value AC20 from 2 μM-5 μM)

## CC(C)(C1CCN(C(=O)Nc2cnns2)CC1)S(=O)(=O)c1ccc(C#N)cc1 [Compound 179, 4-(2-((4-cyanophenyl)sulfonyl)propan-2-yl)-N-(1,2,3-thiadiazol-5-yl)piperidine-1-carboxamide]
  Myosin Activation (AC20): +++ (+++ represents myosin activation value AC20 < 2 μM)

## CCn1nccc1S(=O)(=O)C(C)(F)C1CCN(C(=O)Nc2ccnnc2)CC1 (centres unmarked) [Compound 269, 4-(1-((1-ethyl-1H-pyrazol-5-yl)sulfonyl)-1-fluoroethyl)-N-(pyridazin-4-yl)piperidine-1-carboxamide]
  Myosin Activation (AC20): ++ (++ represents myosin activation value AC20 from 2 μM-5 μM)

## C[C@](F)(C1CCN(C(=O)Nc2ccnc(C#N)c2)CC1)S(=O)(=O)c1cccc(F)c1 [Compound 293, (R)-N-(2-cyanopyridin-4-yl)-4-(1-fluoro-1-((3-fluorophenyl)sulfonyl)ethyl)piperidine-1-carboxamide]
  Myosin Activation (AC20): + (+ represents myosin activation value AC20 > 5 μM)

## Cc1cc(NC(=O)N2CCC(C(C)(F)S(=O)(=O)c3cccc(F)c3)CC2)cnn1 (centres unmarked) [Compound 12, 4-(1-Fluoro-1-((3-fluorophenyl)sulfonyl)ethyl)-N-(6-methylpyridazin-4-yl)piperidine-1-carboxamide]
  Myosin Activation (AC20): + (+ represents myosin activation value AC20 > 5 μM)

## CC(F)(C1CCN(C(=O)Cc2ccnnc2)CC1)S(=O)(=O)c1cccc(F)c1 (centres unmarked) [Compound 10, 1-(4-(1-Fluoro-1-((3-fluorophenyl)sulfonyl)ethyl)piperidin-1-yl)-2-(pyridazin-4-yl)ethan-1-one]
  Myosin Activation (AC20): + (+ represents myosin activation value AC20 > 5 μM)

## CC(C)(C1CCN(C(=O)Nc2ccns2)CC1)S(=O)(=O)c1ccccc1Cl [Compound 208, 4-(2-((2-chlorophenyl)sulfonyl)propan-2-yl)-N-(isothiazol-5-yl)piperidine-1-carboxamide]
  Myosin Activation (AC20): ++ (++ represents myosin activation value AC20 from 2 μM-5 μM)

## Cc1ccc(NC(=O)N2CCC(C(C)(C)S(=O)(=O)c3cn(C)nc3C(F)F)CC2)cn1 [Compound 155, 4-(2-((3-(difluoromethyl)-1-methyl-1H-pyrazol-4-yl)sulfonyl)propan-2-yl)-N-(6-methylpyridin-3-yl)piperidine-1-carboxamide]
  Myosin Activation (AC20): ++ (++ represents myosin activation value AC20 from 2 μM-5 μM)

## O=C(Nc1ccnnc1)N1CCC(C2(S(=O)(=O)c3cccc(F)c3)CCC2)CC1 [Compound 43, 4-(1-((3-fluorophenyl)sulfonyl)cyclobutyl)-N-(pyridazin-4-yl)piperidine-1-carboxamide]
  Myosin Activation (AC20): +++ (+++ represents myosin activation value AC20 < 2 μM)

## N#Cc1cc(C(F)(F)F)ccc1S(=O)(=O)C(F)(F)C1CCN(C(=O)Nc2ccnnc2)CC1 [Compound 3, 4-(((2-Cyano-4-(trifluoromethyl)phenyl)sulfonyl)difluoromethyl)-N-(pyridazin-4-yl)piperidine-1-carboxamide]
  Myosin Activation (AC20): +++ (+++ represents myosin activation value AC20 < 2 μM)

## O=C(Nc1ccnnc1)N1CCC(C2(S(=O)(=O)c3cc(F)cc(F)c3)CCC2)CC1 [Compound 167, 4-(1-((3,5-difluorophenyl)sulfonyl)cyclobutyl)-N-(pyridazin-4-yl)piperidine-1-carboxamide]
  Myosin Activation (AC20): +++ (+++ represents myosin activation value AC20 < 2 μM)

## CC(F)(C1CCN(C(=O)Nc2ccnnc2)CC1)S(=O)(=O)c1cccc(Cl)c1 (centres unmarked) [Compound 264, 4-(1-((3-chlorophenyl)sulfonyl)-1-fluoroethyl)-N-(pyridazin-4-yl)piperidine-1-carboxamide]
  Myosin Activation (AC20): +++ (+++ represents myosin activation value AC20 < 2 μM)

## Cn1nccc1S(=O)(=O)C(C)(C)C1CCN(C(=O)Nc2ccnc(F)c2)CC1 [Compound 134, N-(2-fluoropyridin-4-yl)-4-(2-((1-methyl-1H-pyrazol-5-yl)sulfonyl)propan-2-yl)piperidine-1-carboxamide]
  Myosin Activation (AC20): ++ (++ represents myosin activation value AC20 from 2 μM-5 μM)

## C[C@](F)(C1CCN(C(=O)Nc2ccon2)CC1)S(=O)(=O)c1ccc(OC(F)F)nc1 [Compound 312, (R)-4-(1-((6-(difluoromethoxy)pyridin-3-yl)sulfonyl)-1-fluoroethyl)-N-(isoxazol-3-yl)piperidine-1-carboxamide]
  Myosin Activation (AC20): +++ (+++ represents myosin activation value AC20 < 2 μM)

## CC(F)(C1CCN(C(=O)Nc2ccon2)CC1)S(=O)(=O)c1cccc(F)c1 (centres unmarked) [Compound 234, 4-(1-fluoro-1-((3-fluorophenyl)sulfonyl)ethyl)-N-(isoxazol-3-yl)piperidine-1-carboxamide]
  Myosin Activation (AC20): +++ (+++ represents myosin activation value AC20 < 2 μM)

## CC(F)(C1CCN(C(=O)Nc2cnns2)CC1)S(=O)(=O)c1cccc(F)c1 (centres unmarked) [Compound 45, 4-(1-fluoro-1-((3-fluorophenyl)sulfonyl)ethyl)-N-(1,2,3-thiadiazol-5-yl)piperidine-1-carboxamide]
  Myosin Activation (AC20): +++ (+++ represents myosin activation value AC20 < 2 μM)

## Cc1cc(S(=O)(=O)C(C)(C)C2CCN(C(=O)Nc3ccnnc3)CC2)n(C)n1 [Compound 187, 4-(2-((1,3-dimethyl-1H-pyrazol-5-yl)sulfonyl)propan-2-yl)-N-(pyridazin-4-yl)piperidine-1-carboxamide]
  Myosin Activation (AC20): +++ (+++ represents myosin activation value AC20 < 2 μM)

## C[C@](F)(C1CCN(C(=O)Nc2ccc(C#N)nc2)CC1)S(=O)(=O)c1cccc(F)c1 [Compound 292, (R)-N-(6-cyanopyridin-3-yl)-4-(1-fluoro-1-((3-fluorophenyl)sulfonyl)ethyl)piperidine-1-carboxamide]
  Myosin Activation (AC20): ++ (++ represents myosin activation value AC20 from 2 μM-5 μM)

## Cc1ccc(NC(=O)N2CCC(C(C)(C)S(=O)(=O)c3cc(C(F)(F)F)nn3C)CC2)cn1 [Compound 130, 4-(2-((1-methyl-3-(trifluoromethyl)-1H-pyrazol-5-yl)sulfonyl)propan-2-yl)-N-(6-methylpyridin-3-yl)piperidine-1-carboxamide]
  Myosin Activation (AC20): ++ (++ represents myosin activation value AC20 from 2 μM-5 μM)

## C[C@H](O)c1cc(NC(=O)N2CCC(C(F)(F)S(=O)(=O)c3cn(C)nc3C(F)F)CC2)ccn1 [Compound 99, (S)-4-(((3-(difluoromethyl)-1-methyl-1H-pyrazol-4-yl)sulfonyl)difluoromethyl)-N-(2-(1-hydroxyethyl)pyridin-4-yl)piperidine-1-carboxamide]
  Myosin Activation (AC20): + (+ represents myosin activation value AC20 > 5 μM)

From US11123337B2, “4-methylsulfonyl-substituted piperidine urea compounds” (MYOKARDIA, INC., priority 2015, dated 2021)
